The source of these data is patent US20250320246A1, “3-AZASTEROID COMPOUNDS FOR THE TREATMENT OF DISEASES RELATED TO MITROCHONDRIAL FUNCTION” (NZP UK LIMITED, priority 2022, published 2025).

Each structure is given as a SMILES string. Counter-ions that a name gives are not always drawn.

As a reminder, the EC50 is the concentration at which the effect is half-maximal. The low end stands for greater potency, the high end for weaker potency.

In assay [1] the test system is sporadic PD patient fibroblasts. Briefly: Mitochondrial membrane potential (MMP, TMRM) in sporadic PD patient fibroblasts. The format is cell-based, human. The conditions noted are these: 24 h, 3 sporadic PD patient fibroblasts; for EC50: 8-point range 0.06 nM-300 nM; for Emax: max response with highest dose of compound (300 nM), read-out: MMP % of vehicle, top %; for activity at 60 pM: max response with lowest dose of compound (0.06 nM), read-out: MMP % of vehicle, bottom %. The protocol:
(§1) Primary fibroblast cells were cultured continuously in Glucose based medium (high glucose (4500 mg/L) Dulbecco's Modified Eagle's medium (DMEM; Sigma-Aldrich) supplemented with 10% fetal bovine serum (Sigma-Aldrich), 100 IU/mL penicillin, 100 μg/mL streptomycin (Lonza), 1 mM sodium pyruvate (Sigma-Aldrich) and 50 μg/mL uridine (Sigma-Aldrich)). Unless otherwise stated, 24 hours prior to analysis, the Glucose based medium was exchanged for Galactose based medium (glucose-free DMEM (Gibco) with the same supplementation and in addition, 5 mM galactose (Sigma-Aldrich)). All cells were assessed between passage 6-10.
Fibroblasts were cultured and plated into a greiner black 384 μClear® plate at a concentration of 1000 cells per well in 50 μl of media volume. The plates are left overnight in an incubator to allow the fibroblasts to adhere to the plate surface. The following morning the Glucose based medium is replaced with 25 μl of Galactose based medium. The plates were then dosed with the compounds using an ECHO® 550 liquid handling system. The wells were dosed to provide an 8-point concentration range of 0.06 nM-300 nM of compound. After dosing the wells are topped up with a further 25 μl of Galactose based medium and then left in an incubator for 24 hours. After 24 hours, the medium is removed from the wells and replaced with 25 μl phenol free Minimal essential medium supplemented with 10% FBS, 1% Penicillin-streptomycin, 1% sodium pyruvate, 0.1% uridine, 1% non-essential amino acids and 1% MEM vitamins with 80 nM TMRM (Sigma) and 10 μM Hoechst Stain (Sigma). The plate is returned to the incubator for another hour after which the stain medium is removed and replaced with 25 μl Phenol free MEM. The plate is then imaged using an IN Cell high content microscope (GE Healthcare) with fields of view per well in 2 channels, Cy3 excitation 542 nm, emission 604-64 nm; and the DAPI excitation 350 nm, emission 450-55 nm at 37° C. with CO2. After imaging the plate is disposed of and the images are Data mined using the INCell developer Toolkit (GE Healthcare).
After the assays had been repeated in triplicate per line and compound the data was then inputted into Graph pad Prism 7 software suite where a dose response curve is generated using the default “[Agonist] vs response(three parameters)” equation. […]

For assay [2] the test system is unchanged. The assay is described as follows: Cellular ATP levels in sporadic PD patient fibroblasts, full ATP assay. The format is cell-based, human. The following applies: 24 h, 3 sporadic PD patient fibroblasts; for EC50: 8-point range 0.06 nM-300 nM; for Emax at 0.3 µM: max response with highest dose of compound (300 nM), read-out: ATP % of vehicle, top %; for activity at 60 pM: max response with lowest dose of compound (0.06 nM), read-out: ATP % of vehicle, bottom %. The procedure:
as §1
The ATP protocol is generally as described in Mortiboys et al 2008. Briefly, fibroblasts were cultured as and plated into white 384 well plates at a concentration of 5000 cells per well in 50 μl of media volume. The plates are left overnight in an incubator to allow the fibroblasts to adhere to the plate surface. The following morning the Glucose based medium is replaced with 25 μl of Galactose based medium. The plates were then spiked with the compounds using a ECHO 550 liquid handling system. The wells were dosed to provide an 8-point concentration range of 0.06 nM-300 nM of compound. After dosing the wells are topped up with a further 25 μl of Galactose based medium and then left in an incubator for 24 hours. Following this incubation, the medium is removed from the plate and the wells are washed twice with sterile PBS. The wells are filled with 25 μl of Sterile PBS followed by 12.5 μl of Lysis solution from the ATPlite™ Luminescence ATP detection assay system (Perkin Elmer), including 16 cell free wells to use as blank controls. The plate is then placed on a rotary shaker for 5 mins at 700 rpm. Following the shaking 12.5 μl of ATP substrate solution (Perkin Elmer) is added to each well and a further 5 min of shaking. The plate is then placed in darkness for 10 minutes prior to reading. Using a PHERAStar® plate reader, luminescence intensity is recorded. Following the ATP assay the plates are immediately assayed for DNA content in a CyQUANT® assay.
Immediately following The ATP assay DNA content is assessed with the CyQUANT® NF Cell Proliferation Assay Kit (ThermoFisher). CyQUANT® buffer is prepared immediately before the assay and is comprised of 1 μl CyQUANT® dye per ml×1 HBSS solution. 12.5 μl of CyQUANT® buffer is added to each well. Plate left in incubator for 1 hour then read on a PHERAStar© Plate reader with excitation at 497 nm and emission at 520 nm.
ATP Quantification for each well is determined using the following formula: […]
After the assays had been repeated in triplicate per line and compound the data was then inputted into Graph pad Prism 7 software suite where a dose response curve is generated using the default “[Agonist] vs response(three parameters)” equation.
From this EC50 values, lowest response and maximal response were taken and used to calculate the Geometric mean between the 5 different lines assessed.

In the case of `C[C@H](CCCC(=O)O)[C@H]1CC[C@H]2[C@@H]3[C@@H](O)C[C@@H]4CN(C)CC[C@]4(C)[C@H]3CC[C@]12C` [Compound 31b, N-Methyl-3-aza-7β-hydroxy-25-homo-5β-cholan-25-oic acid hydrotrifluoroacetate], in assay [1] (Homo sapiens, Fibroblast), the half-maximal effective concentration (EC50) was found to be 6.1 nM, the Emax is 95.1% and the activity at 60 pM came to 86.5%. Also, in assay [2] (Homo sapiens, Fibroblast), a half-maximal effect (EC50) was put at 0.266 nM, the Emax at 0.3 µM stood at 161% and the activity at 60 pM was determined as 91.7%.
`C[C@H](CCC(=O)O)[C@H]1CC[C@H]2[C@@H]3[C@@H](O)C[C@@H]4CN(C)CC[C@]4(C)[C@H]3CC[C@]12C` [Compound 33, N-Methyl-3-aza-7β-hydroxy-5β-cholan-24-oic acid hydrochloride]: the 50% effective concentration (EC50) in assay [1] (hydrochloride) turned out to be 18.3 nM; in assay [2] (hydrochloride), 0.75 nM. The activity at 60 pM in assay [1] (Homo sapiens, Fibroblast) is 82.3%; in assay [2] (Homo sapiens, Fibroblast), 88.8%.
`C[C@H](CCC(=O)O)[C@H]1CC[C@H]2[C@@H]3[C@@H](O)C[C@@H]4CN(C(=O)CO)CC[C@]4(C)[C@H]3CC[C@]12C` [Compound 40a, N-Glycolyl-3-aza-7β-hydroxy-5β-cholan-24-oic acid]: in assay [1] (Homo sapiens, Fibroblast), the EC50 was 65.3 nM, the Emax was 106% and the activity at 60 pM worked out at 93.5%. Further, in assay [2] (Homo sapiens, Fibroblast), the EC50 stood at 22.8 nM, the Emax at 0.3 µM came out at 103% and the activity at 60 pM worked out at 89.9%.
Take `C[C@H](CCCC(=O)O)[C@H]1CC[C@H]2[C@@H]3[C@@H](O)C[C@@H]4CN(C(=O)CO)CC[C@]4(C)[C@H]3CC[C@]12C` [Compound 40b, N-Glycolyl-3-aza-7β-hydroxy-25-homo-5β-cholan-25-oic acid]: in assay [1] (Homo sapiens, Fibroblast), the EC50 amounted to 26.1 nM, the Emax was 131% and the activity at 60 pM is 95.3%. Further, in assay [2] (Homo sapiens, Fibroblast), the half-maximal effective concentration (EC50) was 19.5 nM, the Emax at 0.3 µM is 130% and the activity at 60 pM was 101%.
In the case of `CC(C)[C@H](N)C(=O)N1CC[C@@]2(C)[C@H](C[C@H](O)[C@@H]3[C@@H]2CC[C@]2(C)[C@@H]([C@H](C)CCCC(=O)O)CC[C@@H]32)C1` [Compound 41b, N-[(2S)-2-Amino-3-methylbutanoyl]-3-aza-7β-hydroxy-25-homo-5β-cholan-25-oic acid hydrotrifluoroacetate], the activity at 60 pM in assay [1] (Homo sapiens, Fibroblast) stood at 84.6%; in assay [2] (Homo sapiens, Fibroblast), 78.9%.
Take `CC[C@H](C)[C@H](N)C(=O)N1CC[C@@]2(C)[C@H](C[C@H](O)[C@@H]3[C@@H]2CC[C@]2(C)[C@@H]([C@H](C)CCC(=O)O)CC[C@@H]32)C1` [Compound 42a, N-[(2S,3S)-2-Amino-3-methylpentanoyl]-3-aza-7β-hydroxy-5β-cholan-24-oic acid hydrotrifluoroacetate]: in assay [1] (Homo sapiens, Fibroblast), a half-maximal response (EC50) required 130 nM, the Emax was found to be 69.2% and the activity at 60 pM is 71.3%. Moreover, in assay [2] (Homo sapiens, Fibroblast), the concentration for a half-maximal effect (EC50) was 134 nM, the Emax at 0.3 µM was determined as 64.5% and the activity at 60 pM was determined as 89.6%.
`CC[C@H](C)[C@H](N)C(=O)N1CC[C@@]2(C)[C@H](C[C@H](O)[C@@H]3[C@@H]2CC[C@]2(C)[C@@H]([C@H](C)CCCC(=O)O)CC[C@@H]32)C1` [Compound 42b, N-[(2S,3S)-2-Amino-3-methylpentanoyl]-3-aza-7β-hydroxy-25-homo-5β-cholan-25-oic acid hydrotrifluoroacetate]: in assay [1] (Homo sapiens, Fibroblast), the EC50 came to 5.1 nM, the Emax stood at 96.6% and the activity at 60 pM was 92.2%. Also, in assay [2] (Homo sapiens, Fibroblast), the concentration giving a half-maximal response (EC50) was 25.4 nM, the Emax at 0.3 µM worked out at 98.5% and the activity at 60 pM stood at 91.3%.
`CC(C)C[C@H](N)C(=O)N1CC[C@@]2(C)[C@H](C[C@H](O)[C@@H]3[C@@H]2CC[C@]2(C)[C@@H]([C@H](C)CCC(=O)O)CC[C@@H]32)C1` [Compound 43a, N-[(2S)-2-Amino-4-methylpentanoyl]-3-aza-7β-hydroxy-5β-cholan-24-oic acid hydrotrifluoroacetate]: in assay [1] (Homo sapiens, Fibroblast), the EC50 turned out to be 0.2 nM, the Emax stood at 100% and the activity at 60 pM stood at 84.1%. For the same compound, in assay [2] (Homo sapiens, Fibroblast), it took 8.9 nM to reach a half-maximal effect (EC50), the Emax at 0.3 µM came out at 86% and the activity at 60 pM was 90.2%.
For `CC(C)C[C@H](N)C(=O)N1CC[C@@]2(C)[C@H](C[C@H](O)[C@@H]3[C@@H]2CC[C@]2(C)[C@@H]([C@H](C)CCCC(=O)O)CC[C@@H]32)C1` [Compound 43b, N-[(2S)-2-Amino-4-methylpentanoyl]-3-aza-7β-hydroxy-25-homo-5β-cholan-25-oic acid hydrotrifluoroacetate], in assay [1] (Homo sapiens, Fibroblast), the half-maximal effective concentration (EC50) turned out to be 1.1 nM, the Emax turned out to be 103% and the activity at 60 pM came to 86.9%. In addition, the Emax at 0.3 µM in assay [2] (Homo sapiens, Fibroblast) was 80.6%.
Regarding `C[C@H](CCC(=O)O)[C@H]1CC[C@H]2[C@@H]3[C@@H](O)C[C@@H]4CN(C(=O)[C@@H](N)Cc5c[nH]c6ccccc56)CC[C@]4(C)[C@H]3CC[C@]12C` [Compound 44a, N-[(2S)-2-Amino-3-(1H-indol-3-yl)propanoyl]-3-aza-7β-hydroxy-5β-cholan-24-oic acid hydrotrifluoroacetate], in assay [1] (Homo sapiens, Fibroblast), the half-maximal effective concentration (EC50) was found to be 0.09 nM, the Emax came to 102% and the activity at 60 pM was 73.5%. In assay [2] (Homo sapiens, Fibroblast), the concentration giving a half-maximal response (EC50) was found to be 0.23 nM, the Emax at 0.3 µM came to 122% and the activity at 60 pM worked out at 65.1%.
Consider `C[C@H](CCCC(=O)O)[C@H]1CC[C@H]2[C@@H]3[C@@H](O)C[C@@H]4CN(C(=O)[C@@H](N)Cc5c[nH]c6ccccc56)CC[C@]4(C)[C@H]3CC[C@]12C` [Compound 44b, N-[(2S)-2-Amino-3-(1H-indol-3-yl)propanoyl]-3-aza-7β-hydroxy-25-homo-5β-cholan-25-oic acid hydrotrifluoroacetate], for which, in assay [1] (Homo sapiens, Fibroblast), the EC50 came out at 0.11 nM, the Emax was found to be 98.8% and the activity at 60 pM is 77.8%. Further, the Emax at 0.3 µM in assay [2] (Homo sapiens, Fibroblast) is 98.4%.
`C[C@H](CCC(=O)O)[C@H]1CC[C@H]2[C@@H]3[C@@H](O)C[C@@H]4CN(C(=O)[C@@H](N)Cc5ccc(O)cc5)CC[C@]4(C)[C@H]3CC[C@]12C` [Compound 45a, N-[(2S)-2-Amino-3-(4-hydroxyphenyl)propanoyl]-3-aza-7β-hydroxy-5β-cholan-24-oic acid hydrotrifluoroacetate]: in assay [1] (Homo sapiens, Fibroblast), a half-maximal response (EC50) required 0.18 nM, the Emax came to 95.1% and the activity at 60 pM stood at 82.3%. Further, in assay [2] (Homo sapiens, Fibroblast), the concentration giving a half-maximal response (EC50) is 0.25 nM, the Emax at 0.3 µM turned out to be 97.2% and the activity at 60 pM was 83.8%.
